The text below walks through data of patent US11970456B1, “Synthesis of thiosemicarbazide analogue as inhibitor of tyrosinase, skin hyperpigmentation, and fruit and/or vegetable browning” (KING SAUD UNIVERSITY, priority 2023, dated 2024).

The test system of data set [1] is T1, mushroom tyrosinase (EC 1.14.18.1).
T1 construct: 22 U of mushroom tyrosinase (EC 1.14.18.1)
Nature of the data set: Tyrosinase inhibition assay and kinetics (o-diphenolase activity, L-DOPA substrate). The data set is classed as biochemical, Agaricus bisporus (mushroom). The settings on record: for Type of inhibition: Lineweaver-Burk and Dixon plots. On the procedure: The assay mixture contained sodium phosphate buffer (50 mM; pH 6.8), 22 U of mushroom tyrosinase (EC 1.14.18.1; Sigma Chemical Co., St. Louis, USA), L-DOPA substrate (1 mM), and Compound 2 dissolved in DMSO. The final concentration of DMSO in the assay mixture was 0.5%. The o-diphenolase inhibitory activity of Compound 2 was first screened at a final concentration of 30 μM using Ultrospec 2100 pro spectrophotometer (Amersham Biosciences, UK).
The kinetic assays included a range of substrate (0.25-2.0 mM) and Compound 2 concentrations (0.25, 0.5, 1.0, 2.0 μM). The […] was first incubated with the […] for 15 min. at 25° C. followed by addition of substrate. The reaction was continuously monitored in the spectrophotometer and the enzyme velocity was measured from the linear portion of the curve (7). The kinetics data were analyzed by Grafit 7.0.3 software (Erithacus Software Ltd., Staines, UK) utilizing the Lineweaver Burk plot {1/v versus 1/[S]} and the Ki values were calculated using the Dixon plot {1/v versus [I]}.

Entries after “also recorded” stand apart in the source; their conditions may differ.

For `NC(=S)N/N=C/c1ccc2[nH]ncc2c1` [Compound 2, 2-((1H-indazol-5-yl)methylene)hydrazinecarbothioamide], the melting point was in the range of 258 to 262 °C. In addition, in data set [1] (Ki of kojic acid versus Ki of the compound), the “fold more potent than kojic acid (by Ki)” value was 52 fold. Further, in data set [1], the Type of inhibition result is recorded as “competitive inhibitor; also recorded: competitive inhibition”. In data set [1] (o-diphenolase activity, L-DOPA substrate, 25° C., pH 6.8, read-out: IC50 (μM ± SEM)), the IC50 amounted to 0.228 µM. For the same compound, the Ki in data set [1] (o-diphenolase activity, L-DOPA substrate, Dixon plot, 25° C., pH 6.8, read-out: Ki (μM ± SEM)) was 0.0843 µM.

On to `O=c1cc(CO)occ1O` [Kojic acid, kojic acid, reference compound], for which the Type of inhibition entry in data set [1] is on record as “Competitive”.

What is called IC50 is the concentration that inhibits the measured activity by half. Broadly, the Ki is a measure of affinity in units of concentration, obtained from inhibition or displacement. The melting point is the temperature of the solid-liquid transition.
